Results published in ChEMBL document CHEMBL5331060, “Bisindole natural products: A vital source for the development of new anticancer drugs” (Eur J Med Chem, 2022).
pIC50: −log10 of the molar value. ≈ marks a conversion by molar mass, not a printed value.

How the values were obtained:
Assay type in all cases: functional, cell-based
[1] = system: AGS; assay: Antiproliferative activity against human AGS cells assessed as inhibition of cell growth incubated for 24 hrs by MTT assay
[2] = system: L1210; assay: Antiproliferative activity against mouse L1210 cells assessed as inhibition of cell growth incubated for 24 hrs by MTT assay; settings: L1210, 24 h
[3] = system: MCF7; assay: Antiproliferative activity against human MCF7 cells assessed as inhibition of cell growth incubated for 72 hrs by SRB assay; settings: MCF7, 72 h
[4] = system: A549; assay: Antiproliferative activity against human A549 cells assessed as inhibition of cell growth incubated for 72 hrs by SRB assay; settings: A549, 72 h
[5] = system: K562; assay: Antiproliferative activity against human K562 cells assessed as inhibition of cell growth incubated for 48 hrs by WST-1 assay; settings: K562, 48 h
[6] = system: HL-60; assay: Antiproliferative activity against human HL-60 cells assessed as inhibition of cell growth incubated for 48 hrs by WST-1 assay; settings: HL-60, 48 h
[7] = system: MCF7; assay: Antiproliferative activity against human MCF7 cells assessed as inhibition of cell growth incubated for 48 hrs by MTT assay; settings: MCF7, 48 h
[8] = system: HL-60; assay: Antiproliferative activity against human HL-60 cells assessed as inhibition of cell growth incubated for 48 hrs by MTT assay; settings: HL-60, 48 h
[9] = system: SW480; assay: Antiproliferative activity against human SW480 cells assessed as inhibition of cell growth incubated for 48 hrs by MTT assay; settings: SW480, 48 h
[10] = system: A549; assay: Antiproliferative activity against human A549 cells assessed as inhibition of cell growth incubated for 48 hrs by MTT assay; settings: A549, 48 h
[11] = system: SMMC-7721; assay: Antiproliferative activity against human SMMC-7721 cells assessed as inhibition of cell growth incubated for 48 hrs by MTT assay; settings: SMMC-7721, 48 h
[12] = system: SMMC-7721; assay: Antiproliferative activity against human SMMC-7721 cells assessed as inhibition of cell growth incubated for 48 hrs by MTS assay; settings: SMMC-7721, 48 h
[13] = system: K562; assay: Antiproliferative activity against human K562 cells assessed as inhibition of cell growth by MTT assay
[14] = system: A549; assay: Antiproliferative activity against human A549 cells assessed as inhibition of cell growth by MTT assay

Question: What does the source list for `O=C1N[C@H](c2c[nH]c3cc(Br)ccc23)CN[C@H]1c1c[nH]c2cc(Br)ccc12`?
Answer: IC50 [1]: 1.1 µg/mL (≈ 2.25 µM); IC50 [2]: 1.1 µg/mL (≈ 2.25 µM)

Question: With `CC[C@@H]1CN(C)[C@H]2Cc3c([nH]c4ccccc34)[C@H](c3ccc4c5c([nH]c4c3)[C@]3(C(=O)OC)C[C@@H]4C[C@H](CC)[C@@H]3N(CC5)[C@@H]4CCOC)C[C@H]1[C@@H]2C(=O)OC` as the compound, how does the pIC50 [3] read?
Answer: 5.65

Question: What about the pIC50 [4] of the same compound?
Answer: 5.92

Question: With `CCC(=O)C[C@@H]1CN(C=O)CCc2c([nH]c3ccccc23)[C@@](C(=O)OC)(c2cc3c(cc2OC)N(C)[C@@H]2[C@]34CCN3CC=C[C@@](CC)(C[C@]2(O)C(=O)OC)[C@H]34)C1` as the compound, how does the pIC50 [5] read?
Answer: 4.25

Question: And the pIC50 [6]?
Answer: 4.25

Question: `C/C=C1\CN(C)[C@H]2Cc3c([nH]c4ccccc34)[C@H](c3c(OC)ccc4c5c([nH]c34)[C@]3(C(=O)OC)C[C@@H]4C[C@H](CC)[C@@H]3N(CC5)C4)C[C@H]1[C@@H]2C(=O)OC` was tested. Which pIC50 [3] did it give?
Answer: > 5.00

Question: And the pIC50 [4]?
Answer: > 5.00

Question: Which results are given for `CC[C@]12C=CCN3CCc4c(n(c5ccccc45)[C@@H](c4cc5c(cc4OC)NC4=C(C(=O)OC)C[C@]6([C@@H](C)OC(C)=O)CCCN7CC[C@@]45[C@@H]76)C1)[C@@H]32`?
Answer: pIC50 [7]: 5.49; pIC50 [8]: 5.49; pIC50 [9]: 5.49; pIC50 [10]: 5.49; pIC50 [11]: 5.49

Question: With `CC[C@]12C=CCN3CC[C@]4(C(=C(C(=O)OC)C1)Nc1cc5c(cc14)[C@@H]1[C@H](O5)[C@@H](O)[C@@]4(CC)C=C(C(=O)OC)C5Nc6c(ccc(OC)c6O)[C@@]56CCN1[C@@H]46)[C@@H]32` (stereo partly drawn) as the compound, how does the pIC50 [12] read?
Answer: 5.76

Question: What does the source list for `C/C=C1/CN(C)[C@H]2Cc3c([nH]c4ccccc34)[C@H](c3ccc4[nH]c5c(c4c3)CCN3[C@H]4[C@@H](CC)C[C@H](C[C@@]54C(=O)OC)[C@@H]3CC(C)=O)C[C@H]1[C@@H]2C(=O)OC`?
Answer: pIC50 [3]: > 5.00; pIC50 [4]: > 5.00

Question: With `CC[C@@H]1CN(C)[C@H]2Cc3c([nH]c4ccccc34)[C@H](c3ccc4c5c([nH]c4c3)[C@]3(C(=O)OC)C[C@@H]4C[C@H](CC)[C@@H]3N(CC5)C4)C[C@@H]1[C@@H]2C(=O)OC` as the compound, how does the pIC50 [3] read?
Answer: > 5.00

Question: And the pIC50 [4]?
Answer: < 5.00

Question: With `CC[C@]12C=CCN3CCc4c(n(c5cc(OC)ccc45)[C@@H](c4cc5c(cc4OC)NC4=C(C(=O)OC)C[C@]6(CC)CCCN7CC[C@@]45[C@@H]76)C1)[C@@H]32` as the compound, how does the pIC50 [7] read?
Answer: 5.49

Question: What about the pIC50 [8] of the same compound?
Answer: 5.49

Question: What about the pIC50 [9] of the same compound?
Answer: 5.49

Question: What about the pIC50 [10] of the same compound?
Answer: 5.49

Question: And the pIC50 [11]?
Answer: 5.49

Question: `CC[C@@H]1CN(C)[C@H]2Cc3c([nH]c4ccccc34)[C@H](c3cc4[nH]c5c(c4cc3OC)CCN3C[C@H]4C[C@H](CC)[C@H]3[C@@]5(C(=O)OC)C4)C[C@H]1[C@@H]2C(=O)OC` was tested. Which pIC50 [3] did it give?
Answer: > 5.00

Question: What about the pIC50 [4] of the same compound?
Answer: > 5.00

Question: How did the pIC50 [12] turn out when `CC[C@]12C=CCN3CC[C@]4(C(=C(C(=O)OC)C1)Nc1cc(OC)c([C@@H]5[C@H]6O[C@H]6[C@@]6(CC)C=C(C(=O)OC)C7Nc8c(cc(O)c(OC)c8OC)[C@@]78CCN5[C@@H]68)cc14)[C@@H]32` (stereo partly drawn) was run?
Answer: 5.70

Question: What does the source list for `CO[C@@]1(C(=O)c2c[nH]c3cc(O)ccc23)N=C(c2c[nH]c3ccccc23)C(=O)N1`?
Answer: pIC50 [13]: 4.62; pIC50 [14]: 4.62

Question: Which results are given for `C/C=C1/CN2COC[C@]3(C(=O)OC)[C@@H]1C[C@@H](c1c(OC)ccc4c1NC1[C@@]4(O)CCN4C[C@H]5C[C@H](CC)[C@H]4[C@@]1(C(=O)OC)C5)c1[nH]c4ccccc4c1C[C@]23C` (stereo partly drawn)?
Answer: pIC50 [7]: 5.33; pIC50 [8]: 4.99; pIC50 [9]: 4.99; pIC50 [10]: 4.99; pIC50 [11]: 4.99

Question: What does the source list for `O=C1N[C@H](c2c[nH]c3ccccc23)CN=C1c1c[nH]c2cc(Br)ccc12`?
Answer: IC50 [1]: 1.1 µg/mL (≈ 2.7 µM); IC50 [2]: 1.1 µg/mL (≈ 2.7 µM)

Question: What does the source list for `C/C=C1\CN(C)[C@H]2Cc3c([nH]c4ccccc34)[C@H](c3cc4[nH]c5c(c4cc3OC)CCN3C[C@H]4C[C@H](CC)[C@H]3[C@H]5C4)C[C@H]1[C@@H]2C(=O)OC`?
Answer: pIC50 [3]: > 5.00; pIC50 [4]: > 5.00

Question: What does the source list for `CC/C1=C/N(C=O)CCc2c([nH]c3ccccc23)[C@@](C(=O)OC)(c2cc3c(cc2OC)N(C)[C@H]2[C@@](O)(C(=O)OC)[C@H](OC(C)=O)[C@]4(CC)C=CCN5CC[C@]32[C@@H]54)CC(=O)C1`?
Answer: pIC50 [5]: 4.25; pIC50 [6]: 4.25

Question: `CO[C@@]1(C(=O)c2c[nH]c3cc(O)ccc23)N=C(c2c[nH]c3cc(Br)ccc23)C(=O)N1` was tested. Which pIC50 [13] did it give?
Answer: 4.62

Question: And the pIC50 [14]?
Answer: 4.62

Question: With `C/C=C1\CN(C)[C@H]2Cc3c([nH]c4ccccc34)[C@H](c3c(OC)ccc4c5c([nH]c34)[C@]3(C(=O)OC)C[C@@H]4C[C@H](CC)[C@@H]3N(CC5)[C@@H]4CC(C)=O)C[C@H]1[C@@H]2C(=O)OC` as the compound, how does the pIC50 [3] read?
Answer: > 5.00

Question: What about the pIC50 [4] of the same compound?
Answer: > 5.00
